Assay: Human HepG2 cell viability assay in 384 well format
Type: toxicity, cell-based
Design: dose 125 nL, time 70.5 hour; concentration not given beside the values
Settings: HepG2 cells, read-out: Inhibition

Structure (SMILES)	cytotoxicity at 70.5 h
O=C1CC(c2ccccc2)C2(CCN(Cc3ccccn3)CC2)N1 (stereo unspecified)	-7.79%
Cc1ccc(NC2CCCN(CCc3ccccc3)C2)nn1 (stereo unspecified)	-3.93%
Cc1cc(C)n2c(CCCNS(=O)(=O)c3ccccc3)nnc2n1	-7.9%
COCCCNC(=O)CN(C)C(=O)c1cc(C)ccc1O	-9.64%
COc1cc(OC)c(CNC(=O)NCC(=O)N2CCCC2)c(OC)c1	-6.53%
CN(C)CC(=O)N1CCCC2(CCN(c3ccccc3)C2=O)C1 (stereo unspecified)	-9.67%
O=C(CCCn1cncn1)NC1CCc2nccn2C1 (stereo unspecified)	-0.0953%
Cc1csc(NC(=O)C2(C)CCCO2)n1 (stereo unspecified)	-7.86%
CCc1cc(N(C)Cc2nonc2C)nc(N(C)C)n1	7.36%
Cc1nc(CN2CCc3ncnc(C)c3CC2)cs1	-6.23%
CNC(=O)CN1CCCC12CCN(C(=O)c1cccc(F)c1)CC2	24.1%
Cc1cnn(C2CN(Cc3nc(C(C)(C)C)no3)C2)c1	20.7%
Cc1cc(Br)oc1C(=O)N1CCC(N(C)C)CC1	33.8%
O=C1NCCN1C1CCN(CC(O)c2ccccc2F)CC1 (stereo unspecified)	-7.23%
Cc1nc(CN2CCCC(NCC(=O)Nc3cccnc3)C2)no1 (stereo unspecified)	-8.83%
O=C(CCCn1ccnc1)N1CCC2(CC1)[C@H](O)C[C@@H]2OCCO	-7.46%
COCCN(Cc1cccnc1)S(=O)(=O)c1cc(C)ccc1F	-5.06%
O=C(NC[C@H]1OC[C@@H](NC2CCOCC2)[C@@H]1O)Nc1ccccc1	14.3%
CN(Cc1ccco1)C(=O)C1CCCc2ccccc21 (stereo unspecified)	-3.68%

Structure (SMILES)	cytotoxicity at 70.5 h
Cc1cc(NC(=O)N2CCCC(CO)C2)nn1-c1ccccc1Cl (stereo unspecified)	-1.91%
CCc1cn[nH]c1C1CCCN(C(=O)c2cc(C#N)c(=O)[nH]c2C)C1 (stereo unspecified)	-22.8%
Cc1cc(NC(=O)N2CCN(C)CC2C)n(Cc2ccccc2)n1 (stereo unspecified)	-9.75%
Cn1ccnc1C(=O)N[C@@H]1CN(CC2CCOCC2)[C@@H]2CCCO[C@@H]21	-2.65%
O=C(NCc1nc(-c2ncccn2)no1)c1ccc(C2CCCO2)s1 (stereo unspecified)	11.9%
CC/C=C(/C)C(=O)NS(=O)(=O)c1ccc(C#N)c(C(F)(F)F)c1	-12.5%
CNC(=O)c1ccc(CN(C)C(=O)Nc2nnc(C(C)C)s2)cc1	2.68%
CN1C[C@@H](n2cnc(-c3ccccc3)c2-c2ccccn2)C[C@H]1C(=O)O	-10%
CCN(Cc1ccoc1)C(=O)NC1CCN(CC2CCCC2)CC1	-6.01%
Cc1nc(CNC(C(=O)N2CCOCC2)c2ccccc2)cs1 (stereo unspecified)	-6.01%
CCCS(=O)(=O)NCC(O)c1c(Cl)cccc1Cl (stereo unspecified)	-0.597%
CCc1csc(CCNC(=O)C2CC(=O)N(C(C)C)C2)n1 (stereo unspecified)	4.82%
c1cc(CCNc2ccc(CC3CCNC3)cn2)ccn1 (stereo unspecified)	-4.08%
Cc1ccccc1-c1noc(CN2CCn3c(nnc3C3CC3)C2)n1	20.5%
CNc1ncc(CN(C)C(=O)c2cccc(-n3cnnc3)c2)cn1	11.7%
Cc1nc(C2CCCN2C(=O)CCCOc2cccc(F)c2)no1 (stereo unspecified)	-4.99%
COCc1cn(C[C@H]2C[C@@H]3CCN2C[C@@H]3C(=O)N2CCOCC2)nn1	-3.96%
COc1ccccc1OCc1cc(C(=O)N2CCCCCC2CO)n[nH]1 (stereo unspecified)	8.73%
O=C(c1ccc2[nH]cnc2c1)N1CCC(COc2ccccn2)CC1	-5.85%

Structure (SMILES)	cytotoxicity at 70.5 h
CCCSc1nn(CCCN(C)C)c2nc3sc(C)c(CC)c3c(=O)n12	11.5%
Cn1cc(CN2CC[C@@H]3O[C@H](C(=O)N4CCOCC4)C[C@@H]32)cn1	-5.63%
Cc1noc(C)c1C(=O)N1CCC2(CCc3ccccc3C(=O)N2)C1 (stereo unspecified)	-4.04%
CCn1cc(CN2C[C@@H]3CCCN3C[C@H]2CCSC)c(C)n1	-4.8%
Cn1nc(CNC(=O)c2cccc(C(F)(F)F)c2)c2c1CCOC2	-3.96%
CCN(C(=O)c1ccc2nnc(C3CCN(C)C3)n2c1)C(C)C (stereo unspecified)	-11.3%
CN(c1ccc(CNC(=O)c2c[nH]c(=O)c(Cl)c2)cc1)C1CCCCC1	5.49%
CC(C)(C)c1nc(CC(=O)Nc2cnccc2O)cs1	-2.57%
Cc1cnc(CN(C)C2CCN(Cc3ccc(Cl)s3)C2)o1 (stereo unspecified)	-15.5%
O=S1(=O)c2cnccc2OC(COc2ccccc2)CN1CC1CC1 (stereo unspecified)	-1.49%
O=C1CCC[C@]2(CN(S(=O)(=O)N3CCOCC3)C[C@H]2c2cccnc2)N1	-4.54%
Cn1cccc1C(=O)COc1ccc(S(N)(=O)=O)cc1	0.32%
CCCNC(=O)COc1ccc(C)cn1	-0.369%
CN(C)c1cc(C(F)(F)F)cc(-c2ccc(C(=O)O)cc2)n1	-6.98%
Cc1cccnc1CNC(=O)CC1C(=O)NCCN1CC(C)(C)C (stereo unspecified)	-10.2%
CNC(=O)CN1CCOCC12CCN(CCc1ccccc1)CC2	-13.5%
Cc1cnc(CNS(=O)(=O)CCC2CCCO2)o1 (stereo unspecified)	-12.3%
CNc1ncc(CN(C)C2CCN(C(C)C)CC2)cn1	-3.89%
